Measured values reported in PMC9841523 (Journal of Medicinal Chemistry, 2022).
Where “and” joins values, the source holds several entries; their conditions need not be identical. Equal entries are not always repeated. Where two headings read alike, the source gives them in different places.

Legend:
[1] = Mouse pharmacokinetics, IP administration; format: in vivo; details: male Balb/c mice, 1 mg/kg IP, mean ± SD, n = 3
Procedure: Mouse Pharmacokinetic Studies. Male Balb/C mice were non-fasted on the day of dosing. PK […]
plasma were conducted using an AB Sciex Triple Quad 6500+ mass spectrometer coupled with a Waters UPLC system. Supernatants were collected by centrifugation after protein precipitation using MeCN containing internal standard (IS, D4-AEA). Supernatant was injected for LC- […]
μm) column. The LC mobile phase (A: 5 mM NH 4OAc in H 2O; B: MeCN/MeOH 50/50)

[2] = test system: AMPKa1, AMPKa2; experiment: KiNativ kinase panel; format: cell-based, human; details: 1 μM, MCF-7 Cells
[3] = target: T1, CHK1 (Homo sapiens, UniProt O14757); experiment: KiNativ kinase panel; format: cell-based; details: 1 μM, MCF-7 Cells
T1 construct: host or cells: MCF7
T1 sequence (O14757 1-476): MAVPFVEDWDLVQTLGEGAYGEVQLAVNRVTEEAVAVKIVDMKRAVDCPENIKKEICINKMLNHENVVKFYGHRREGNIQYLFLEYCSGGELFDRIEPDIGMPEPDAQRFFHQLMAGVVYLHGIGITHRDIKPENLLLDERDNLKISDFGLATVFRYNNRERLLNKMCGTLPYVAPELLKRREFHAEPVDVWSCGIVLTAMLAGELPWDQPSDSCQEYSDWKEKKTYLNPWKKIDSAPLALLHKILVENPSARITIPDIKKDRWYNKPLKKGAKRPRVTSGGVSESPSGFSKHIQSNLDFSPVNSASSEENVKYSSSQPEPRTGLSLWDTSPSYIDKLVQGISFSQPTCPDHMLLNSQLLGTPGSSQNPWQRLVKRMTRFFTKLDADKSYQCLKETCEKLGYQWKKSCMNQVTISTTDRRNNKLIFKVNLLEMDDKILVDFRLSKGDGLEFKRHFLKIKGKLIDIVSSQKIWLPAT

[4] = test system: KSR1, KSR2; experiment: KiNativ kinase panel; format: cell-based, human; details: 1 μM, MCF-7 Cells, Activation Loop
[5] = target: T2, MAP2K7 (Homo sapiens, UniProt O14733); experiment: KiNativ kinase panel; format: cell-based; details: 1 μM; MCF-7 Cells; Lys2; DVKPSNILLDER
T2 construct: MCF7 cells were exposed to; endogenous in cells; host or cells: MCF7

[6] = target: T3, MLK3 (Homo sapiens, UniProt Q16584); experiment: KiNativ kinase panel; format: cell-based; details: 1 μM; MCF-7 Cells; Lys2; DLKSNNILLLQPIESDDMEHK
T3 construct: purchased ActivX Biosciences (KiNativ)

[7] = test system: ROCK1, ROCK2; experiment: KiNativ kinase panel; format: cell-based, human; details: 1 μM; MCF-7 Cells; Lys1; VYAMKLLSK
[8] = test system: Wnk1, Wnk2, Wnk4; experiment: KiNativ kinase panel; format: cell-based, human; details: 1 μM; MCF-7 Cells; Activation Loop; IGDLGLATLKR
[9] = target: T4, A2A(h) (agonist radioligand) (Homo sapiens, UniProt P29274); experiment: Eurofins Safety Screen 44; format: binding; details: read-out: % Inhibition of Control Values
T4 construct: purchased ActivX Biosciences (KiNativ)

[10] = test system: BZD (central) (agonist radioligand); experiment: Eurofins Safety Screen 44; format: binding; details: 10 µM
[11] = target: T5, CB2(h) (agonist radioligand) (Homo sapiens, UniProt P34972); experiment: Eurofins Safety Screen 44; format: binding; details: read-out: % Inhibition of Control Values
T5 construct: purchased ActivX Biosciences (KiNativ)

[12] = target: T6, D1(h) (antagonist radioligand) (Homo sapiens, UniProt P21728); experiment: Eurofins Safety Screen 44; format: binding; details: read-out: % Inhibition of Control Values
T6 construct: purchased ActivX Biosciences (KiNativ)

[13] = target: T7, D2S(h) (agonist radioligand) (Homo sapiens, UniProt P14416); experiment: Eurofins Safety Screen 44; format: binding; details: read-out: % Inhibition of Control Values
T7 construct: purchased ActivX Biosciences (KiNativ)

[14] = target: T8, H1(h) (antagonist radioligand) (Homo sapiens, UniProt P35367); experiment: Eurofins Safety Screen 44; format: binding; details: read-out: % Inhibition of Control Values
T8 construct: purchased ActivX Biosciences (KiNativ)

[15] = target: T9, MAO-A (antagonist radioligand) (Rattus norvegicus, UniProt P21396); experiment: Eurofins Safety Screen 44; format: binding; details: read-out: % Inhibition of Control Values
T9 construct: purchased ActivX Biosciences (KiNativ)

[16] = target: T10, M1(h) (antagonist radioligand) (Homo sapiens, UniProt P11229); experiment: Eurofins Safety Screen 44; format: binding; details: read-out: % Inhibition of Control Values
T10 construct: purchased ActivX Biosciences (KiNativ)

[17] = target: T11, M2 (h) (antagonist radioligand) (Homo sapiens, UniProt P08172); experiment: Eurofins Safety Screen 44; format: binding; details: read-out: % Inhibition of Control Values
T11 construct: purchased ActivX Biosciences (KiNativ)

[18] = target: T12, δ (DOP) (h) (agonist radioligand) (Homo sapiens, UniProt P41143); experiment: Eurofins Safety Screen 44; format: binding; details: read-out: % Inhibition of Control Values
T12 construct: purchased ActivX Biosciences (KiNativ)

[19] = target: T13, kappa (h) (KOP) (agonist radioligand) (Homo sapiens, UniProt P41145); experiment: Eurofins Safety Screen 44; format: binding; details: read-out: % Inhibition of Control Values
T13 construct: purchased ActivX Biosciences (KiNativ)

[20] = target: T14, μ (MOP) (h) (agonist radioligand) (Homo sapiens, UniProt P35372); experiment: Eurofins Safety Screen 44; format: binding; details: read-out: % Inhibition of Control Values
T14 construct: purchased ActivX Biosciences (KiNativ)

[21] = target: T15, 5-HT1A(h) (agonist radioligand) (Homo sapiens, UniProt P08908); experiment: Eurofins Safety Screen 44; format: binding; details: read-out: % Inhibition of Control Values
T15 construct: purchased ActivX Biosciences (KiNativ)

[22] = test system: AR (h) (agonist radioligand); experiment: Eurofins Safety Screen 44; format: binding, human; details: 10 µM
[23] = test system: Na+ channel (site 2) (antagonist radioligand); experiment: Eurofins Safety Screen 44; format: binding; details: 10 µM
[24] = target: T16, norepinephrine transporter(h) (antagonist radioligand) (Homo sapiens, UniProt P23975); experiment: Eurofins Safety Screen 44; format: binding; details: read-out: % Inhibition of Control Values
T16 construct: purchased ActivX Biosciences (KiNativ)

[25] = target: T17, PDE4D2 (h) (Homo sapiens, UniProt Q08499); experiment: Eurofins Safety Screen 44; format: biochemical; details: read-out: % Inhibition of Control Values
T17 construct: Eurofins (ran the panel)

[26] = target: T18, Lck kinase (h) (Homo sapiens, UniProt P06239); experiment: Eurofins Safety Screen 44; format: biochemical; details: read-out: % Inhibition of Control Values
T18 construct: Eurofins (ran the panel)

[27] = test system: Safety Screen 44 off-targets; experiment: Eurofins Safety Screen 44, whole panel; details: 10 µM

T3 sequence (Q16584 whole entry): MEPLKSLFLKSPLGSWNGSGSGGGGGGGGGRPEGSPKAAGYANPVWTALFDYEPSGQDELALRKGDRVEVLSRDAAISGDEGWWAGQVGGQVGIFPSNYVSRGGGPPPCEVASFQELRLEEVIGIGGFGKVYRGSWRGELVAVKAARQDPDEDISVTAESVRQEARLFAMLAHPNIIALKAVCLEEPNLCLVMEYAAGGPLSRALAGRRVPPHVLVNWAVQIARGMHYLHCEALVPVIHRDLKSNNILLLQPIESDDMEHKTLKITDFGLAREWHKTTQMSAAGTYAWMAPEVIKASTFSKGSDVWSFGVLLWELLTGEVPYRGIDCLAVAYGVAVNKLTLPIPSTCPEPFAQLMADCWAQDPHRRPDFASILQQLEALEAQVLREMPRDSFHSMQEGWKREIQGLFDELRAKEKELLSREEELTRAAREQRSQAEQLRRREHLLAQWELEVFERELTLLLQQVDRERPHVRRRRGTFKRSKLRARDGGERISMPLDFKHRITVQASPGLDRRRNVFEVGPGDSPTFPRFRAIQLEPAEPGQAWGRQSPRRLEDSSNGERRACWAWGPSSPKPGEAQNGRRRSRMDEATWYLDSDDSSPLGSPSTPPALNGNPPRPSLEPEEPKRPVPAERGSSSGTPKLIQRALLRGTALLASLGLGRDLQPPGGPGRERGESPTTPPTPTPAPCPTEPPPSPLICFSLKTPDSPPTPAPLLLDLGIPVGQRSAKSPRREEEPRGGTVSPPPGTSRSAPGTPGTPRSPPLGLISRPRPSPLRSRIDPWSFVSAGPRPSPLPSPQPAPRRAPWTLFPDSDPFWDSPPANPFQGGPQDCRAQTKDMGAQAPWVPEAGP
T2 sequence (O14733 whole entry): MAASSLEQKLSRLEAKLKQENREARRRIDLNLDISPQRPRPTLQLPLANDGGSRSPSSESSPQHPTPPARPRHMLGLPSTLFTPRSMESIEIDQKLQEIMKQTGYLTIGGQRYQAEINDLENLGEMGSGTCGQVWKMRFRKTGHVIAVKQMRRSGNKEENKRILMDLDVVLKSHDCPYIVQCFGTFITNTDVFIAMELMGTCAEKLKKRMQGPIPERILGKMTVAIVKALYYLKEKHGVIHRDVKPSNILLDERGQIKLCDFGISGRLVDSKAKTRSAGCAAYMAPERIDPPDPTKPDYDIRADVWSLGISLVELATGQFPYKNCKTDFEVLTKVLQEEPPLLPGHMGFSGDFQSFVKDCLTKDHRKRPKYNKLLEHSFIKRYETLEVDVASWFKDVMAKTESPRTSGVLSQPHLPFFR
T8 sequence (P35367 whole entry): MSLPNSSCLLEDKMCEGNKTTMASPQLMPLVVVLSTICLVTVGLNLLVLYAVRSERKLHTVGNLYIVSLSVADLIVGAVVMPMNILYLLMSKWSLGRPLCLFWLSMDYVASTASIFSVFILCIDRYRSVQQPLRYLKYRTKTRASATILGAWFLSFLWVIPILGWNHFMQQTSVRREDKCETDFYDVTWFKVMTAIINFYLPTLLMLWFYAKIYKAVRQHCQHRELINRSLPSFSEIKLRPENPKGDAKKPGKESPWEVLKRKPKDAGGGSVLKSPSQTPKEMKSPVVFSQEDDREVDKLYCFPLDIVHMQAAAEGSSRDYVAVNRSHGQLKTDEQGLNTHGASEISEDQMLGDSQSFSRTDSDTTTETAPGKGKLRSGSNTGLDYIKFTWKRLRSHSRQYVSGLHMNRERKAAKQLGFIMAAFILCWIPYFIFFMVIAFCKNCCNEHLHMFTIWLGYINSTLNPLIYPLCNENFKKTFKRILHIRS
T6 sequence (P21728 whole entry): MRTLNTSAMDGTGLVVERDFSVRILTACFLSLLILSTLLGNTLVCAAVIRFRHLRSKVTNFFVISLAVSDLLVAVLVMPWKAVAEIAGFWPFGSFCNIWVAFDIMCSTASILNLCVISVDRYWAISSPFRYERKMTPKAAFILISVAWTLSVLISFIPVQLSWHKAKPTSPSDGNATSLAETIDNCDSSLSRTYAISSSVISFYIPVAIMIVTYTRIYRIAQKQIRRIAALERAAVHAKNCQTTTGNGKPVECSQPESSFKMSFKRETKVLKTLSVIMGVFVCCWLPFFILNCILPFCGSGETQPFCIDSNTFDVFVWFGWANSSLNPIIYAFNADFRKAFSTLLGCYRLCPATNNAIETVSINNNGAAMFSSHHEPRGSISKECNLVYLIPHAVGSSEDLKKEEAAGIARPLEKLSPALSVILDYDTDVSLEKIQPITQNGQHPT
T16 sequence (P23975 whole entry): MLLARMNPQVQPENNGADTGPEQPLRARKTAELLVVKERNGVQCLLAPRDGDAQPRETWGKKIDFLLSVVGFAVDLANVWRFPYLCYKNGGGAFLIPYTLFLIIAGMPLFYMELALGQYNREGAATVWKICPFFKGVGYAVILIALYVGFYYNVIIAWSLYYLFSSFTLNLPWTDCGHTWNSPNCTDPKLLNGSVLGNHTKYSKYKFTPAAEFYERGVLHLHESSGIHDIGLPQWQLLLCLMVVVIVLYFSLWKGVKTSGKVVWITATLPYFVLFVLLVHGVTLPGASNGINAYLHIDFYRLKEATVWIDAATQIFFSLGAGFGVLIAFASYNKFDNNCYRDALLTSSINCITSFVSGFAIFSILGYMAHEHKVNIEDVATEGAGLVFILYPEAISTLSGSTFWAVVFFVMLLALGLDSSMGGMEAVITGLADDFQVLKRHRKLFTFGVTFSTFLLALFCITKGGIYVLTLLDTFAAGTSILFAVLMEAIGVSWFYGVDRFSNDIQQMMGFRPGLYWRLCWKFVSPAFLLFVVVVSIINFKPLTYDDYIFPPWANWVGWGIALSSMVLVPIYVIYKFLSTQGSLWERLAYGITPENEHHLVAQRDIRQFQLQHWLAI
T5 sequence (P34972 whole entry): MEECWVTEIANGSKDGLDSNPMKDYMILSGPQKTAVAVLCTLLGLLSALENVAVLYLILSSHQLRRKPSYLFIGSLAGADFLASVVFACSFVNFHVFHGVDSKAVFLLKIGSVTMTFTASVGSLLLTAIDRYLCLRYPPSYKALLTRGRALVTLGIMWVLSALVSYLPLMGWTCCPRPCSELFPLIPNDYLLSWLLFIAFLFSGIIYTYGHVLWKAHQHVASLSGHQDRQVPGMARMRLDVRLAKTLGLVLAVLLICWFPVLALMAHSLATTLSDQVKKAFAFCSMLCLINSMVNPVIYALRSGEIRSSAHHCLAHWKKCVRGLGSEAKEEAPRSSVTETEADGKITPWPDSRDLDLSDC
T11 sequence (P08172 whole entry): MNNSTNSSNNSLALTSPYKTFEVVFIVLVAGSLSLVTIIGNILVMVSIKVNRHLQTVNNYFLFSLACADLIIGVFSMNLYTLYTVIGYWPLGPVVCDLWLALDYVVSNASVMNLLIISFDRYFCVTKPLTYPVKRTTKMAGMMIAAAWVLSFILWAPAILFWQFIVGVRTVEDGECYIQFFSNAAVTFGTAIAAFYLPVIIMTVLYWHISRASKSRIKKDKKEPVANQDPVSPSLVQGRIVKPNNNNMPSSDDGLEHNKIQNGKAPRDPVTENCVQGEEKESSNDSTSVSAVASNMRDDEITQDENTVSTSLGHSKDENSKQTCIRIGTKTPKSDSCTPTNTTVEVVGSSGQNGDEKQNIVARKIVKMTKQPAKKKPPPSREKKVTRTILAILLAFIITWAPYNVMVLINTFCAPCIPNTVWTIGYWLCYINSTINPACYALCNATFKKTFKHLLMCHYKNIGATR
T14 sequence (P35372 whole entry): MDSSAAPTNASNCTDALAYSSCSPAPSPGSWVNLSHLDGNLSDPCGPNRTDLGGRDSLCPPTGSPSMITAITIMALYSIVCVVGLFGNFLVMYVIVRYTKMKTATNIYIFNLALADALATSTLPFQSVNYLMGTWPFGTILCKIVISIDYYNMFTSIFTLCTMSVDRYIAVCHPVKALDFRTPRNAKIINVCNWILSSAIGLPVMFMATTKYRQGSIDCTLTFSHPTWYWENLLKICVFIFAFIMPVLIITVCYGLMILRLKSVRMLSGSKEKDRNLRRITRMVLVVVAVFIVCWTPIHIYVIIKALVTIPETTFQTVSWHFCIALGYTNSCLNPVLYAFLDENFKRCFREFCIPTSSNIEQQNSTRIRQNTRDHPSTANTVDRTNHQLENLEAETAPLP
T7 sequence (P14416 1-414 isoform P14416-2): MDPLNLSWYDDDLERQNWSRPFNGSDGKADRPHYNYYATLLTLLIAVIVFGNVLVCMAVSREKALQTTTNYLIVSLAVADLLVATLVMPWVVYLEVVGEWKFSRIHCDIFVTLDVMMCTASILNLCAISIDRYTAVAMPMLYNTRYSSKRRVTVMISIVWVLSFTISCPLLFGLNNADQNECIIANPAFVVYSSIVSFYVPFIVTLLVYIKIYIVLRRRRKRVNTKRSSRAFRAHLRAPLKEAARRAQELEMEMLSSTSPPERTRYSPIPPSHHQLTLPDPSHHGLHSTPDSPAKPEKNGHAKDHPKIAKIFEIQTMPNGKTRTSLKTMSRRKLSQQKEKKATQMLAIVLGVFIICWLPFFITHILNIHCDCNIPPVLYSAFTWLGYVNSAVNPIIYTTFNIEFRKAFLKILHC
T10 sequence (P11229 whole entry): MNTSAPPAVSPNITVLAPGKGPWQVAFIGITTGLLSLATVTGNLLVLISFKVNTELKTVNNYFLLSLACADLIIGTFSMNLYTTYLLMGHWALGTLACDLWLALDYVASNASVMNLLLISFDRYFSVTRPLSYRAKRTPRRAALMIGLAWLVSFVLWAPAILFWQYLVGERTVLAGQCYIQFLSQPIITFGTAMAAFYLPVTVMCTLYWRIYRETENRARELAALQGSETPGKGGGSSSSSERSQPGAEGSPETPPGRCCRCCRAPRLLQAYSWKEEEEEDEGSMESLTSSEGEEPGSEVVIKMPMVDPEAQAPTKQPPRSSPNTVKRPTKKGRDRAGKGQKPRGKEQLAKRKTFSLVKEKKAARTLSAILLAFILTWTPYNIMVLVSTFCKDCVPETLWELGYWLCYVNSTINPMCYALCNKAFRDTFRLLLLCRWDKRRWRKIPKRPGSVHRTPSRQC

CO[C@H]1C[C@@H]2CC[C@@H](C)[C@@](O)(O2)C(=O)C(=O)N2CCCC[C@H]2C(=O)O[C@H]([C@H](C)C[C@@H]2CC[C@@H](OC(=O)NCCOCCOCCOCCOCCOCCOCCOCCOCCC(=O)NCCS(=O)(=O)c3ccc(C(=O)N4CCOc5ccc(-c6ccc(N)nc6)cc5C4)c(C)c3F)[C@H](OC)C2)C[C@@H](O)[C@H](C)/C=C(\C)[C@@H](O)[C@@H](OC)C(=O)[C@H](C)C[C@H](C)/C=C/C=C/C=C/1C [compound 40]
Tmax [1]: 2.3 ± 1.5 h | t1/2 [1]: 3.8 ± 0.6 h | AUClast ([1]; 1 mg/kg): 8.7 ± 1.2 µM·h | KiNativ Kinase Panel Data ([2]; Lys1, VAVKILNR): 2.1 | KiNativ Kinase Panel Data ([2]; Lys2, DLKPENVLLDAHMNAK): -1.3 | KiNativ Kinase Panel Data ([3]; Lys2, DIKPENLLLDER): -10.9 | KiNativ Kinase Panel Data ([3]; Other, LSKGDGLEFK): 19.6 | KiNativ Kinase Panel Data ([4]; SKNVFYDNGK): -20.7 | KiNativ Kinase Panel Data [5]: -14.8 | KiNativ Kinase Panel Data [6]: -12.3 | KiNativ Kinase Panel Data [7]: -42.0 | KiNativ Kinase Panel Data [8]: -17.4

CO[C@H]1C[C@@H]2CC[C@@H](C)[C@@](O)(O2)C(=O)C(=O)N2CCCC[C@H]2C(=O)O[C@H]([C@H](C)C[C@@H]2CC[C@@H](OC(=O)NCCOCCOCCOCCOCCOCCOCCOCCOCCC(=O)N3CCc4cc(Cn5nc(-c6ccc7oc(N)nc7c6)c6c(N)ncnc65)ccc4C3)[C@H](OC)C2)C[C@@H](O)[C@H](C)/C=C(\C)[C@@H](O)[C@@H](OC)C(=O)[C@H](C)C[C@H](C)/C=C/C=C/C=C/1C [compound 38]
AUC(0-t) ([1]; mouse, in vivo): 25.9 ± 3 µM·h | Cmax ([1]; mouse, in vivo): 5670 ng/mL and 3.19 µM | half-life ([1]; mouse, in vivo): 288 ± 24 min | Tmax ([1]; mouse, in vivo, read-out: Tmax): 2 h | inhibition at 10 µM [9]: -4.5% | % Inhibition of Control Values [10]: 3.3% | inhibition at 10 µM [11]: 0.6% | inhibition at 10 µM [12]: -0.5% | inhibition at 10 µM [13]: 12.2% | inhibition at 10 µM [14]: -12.6% | inhibition at 10 µM [15]: 5.5% | inhibition at 10 µM [16]: -5.4% | inhibition at 10 µM [17]: -3% | inhibition at 10 µM [18]: 11.6% | inhibition at 10 µM [19]: 0.6% | inhibition at 10 µM [20]: 10.3% | inhibition at 10 µM [21]: -9.4% | % Inhibition of Control Values [22]: -14.9% | % Inhibition of Control Values [23]: 1.0% | inhibition at 10 µM [24]: -15.7% | inhibition at 10 µM [25]: -45.6% | inhibition at 10 µM [26]: 11.3% | KiNativ Kinase Panel Data ([2]; Lys1, VAVKILNR): 6.8 | KiNativ Kinase Panel Data ([2]; Lys2, […]): -6.5 | KiNativ Kinase Panel Data ([3]; Lys2, […]): -13.6 | KiNativ Kinase Panel Data ([3]; Other, […]): 25.4 | KiNativ Kinase Panel Data ([4]; […]): -19.2 | KiNativ Kinase Panel Data [5]: 20.9 | KiNativ Kinase Panel Data [6]: 2.0 | Eurofins Safety Screen 44 inhibition [27]: <5% inhibition (low promiscuity) | Eurofins Safety Screen 44 result [27]: no significant inhibition
